From patent US11242539B2, “Elite event EE-GM4 and methods and kits for identifying such event in biological samples” (priority 2016, dated 2022)

Tested on: soybean plants containing event EE-GM4
Experiment: HPPD inhibitor herbicide tolerance field trials (maximum phytotoxicity)
Type: in vivo, Glycine max
Conditions: for average maximum phytotoxicity value: several field trials across 2 years; for tolerance of plants with EE-GM4 to herbicide: field
Description: Numbers in ( ) below a treatment give the number of trials included in the bar, the number on top of each bar gives the average maximum phytotoxicity value for that treatment. Treatments applied were: IFT=isoxaflutole, MST=mesotrione, PE=pre-emergence, PO=post-emergence (at V2-V3 stage, with adjuvants crop oil concentrate and ammonium sulfate added to increase herbicide activity). Rates shown are in gram active ingredient/hectare (4× dose in pre-emergence, 2× dose in post-emergence).
Tolerance of plants comprising EE-GM4 to HPPD inhibitor herbicides was tested at different locations in the field over 2 years. […] All post-emergence treatments were at the V2-V3 stage, with adjuvants crop oil concentrate and ammonium sulfate added to increase herbicide activity.
The “maximum phytotoxicity” as used herein is the highest phytotoxicity rating recorded at any observation during the duration of a trial (with 3 to 4 observations per trial). In existing weed control applications, a normal (lx) dose for isoxaflutole (IFT) in pre- or post-emergence application and for MST in post-emergence application is 105 gr/ha, and a normal (1×) dose for mesotrione in pre-emergence application is 210 gr/ha.
Also, in several field trials across 2 years, soybean plants with event EE-GM4 had good tolerance towards experimental HPPD inhibitor compound 2-methyl-N-(5-methyl-1,3,4-oxadiazol-2-yl)-3-(methylsulfonyl)-4-(trifluoromethyl)benzamide (U.S. Pat. No. 9,101,141) when applied pre-emergence at 400 gr ai/ha or post-emergence at 200 gr ai/ha, respectively (the average maximum phytotoxicity value for each treatment was below 20%). […] All post-emergence treatments were at the V2-V3 stage, with adjuvants crop oil concentrate and ammonium sulfate added to increase herbicide activity.

[1] = applied post-emergence at V2-V3 stage with crop oil concentrate and ammonium sulfate, over 2 years
[2] = applied pre-emergence, different locations over 2 years

Row | SMILES | average maximum phytotoxicity value (post-emergence at 200 gr ai/ha, V2-V3 stage with adjuvants) | average maximum phytotoxicity value (pre-emergence at 400 gr ai/ha) | tolerance of plants with EE-GM4 to herbicide [1] | tolerance of plants with EE-GM4 to herbicide [2] | average maximum phytotoxicity (post-emergence at 100-150 gr ai/ha, V2-V3 stage with adjuvants)
1 | Cc1nnc(NC(=O)c2ccc(C(F)(F)F)c(S(C)(=O)=O)c2C)o1 [2-methyl-N-(5-methyl-1,3,4-oxadiazol-2-yl)-3-(methylsulfonyl)-4-(trifluoromethyl)benzamide] | below 20% | below 20% |  |  | 
2 | CS(=O)(=O)c1ccc(C(=O)C2C(=O)CCCC2=O)c([N+](=O)[O-])c1 [mesotrione, 2-[4-(Methylsulfonyl)-2-nitrobenzoyl]cyclohexane-1,3-dione] |  |  | commercially relevant tolerance | commercially relevant tolerance | 
3 | CS(=O)(=O)c1cc(C(F)(F)F)ccc1C(=O)c1cnoc1C1CC1 [isoxaflutole, (5-cyclopropyl-4-isoxazolyl)[2-(methylsulfonyl)-4-(trifluoromethyl)phenyl]methanone] |  |  | crop damage was a bit higher | commercially relevant tolerance | 
4 | CSc1c(C(F)(F)F)ccc(C(=O)Nc2nnnn2C)c1Cl [2-chloro-3-(methylsulfanyl)-N-(1-methyl-1H-tetrazol-5-yl)-4-(trifluoromethyl)benzamide] |  |  |  |  | 30%
